Test results reported in patent EP4786454A1, “HETEROARYL DERIVATIVE AND USE THEREOF” (priority 2023, dated 2025).

Tested on: P-gp (MDR1)
Assay: Permeability evaluation, bidirectional transport (P-gp substrate)
Type: in vitro ADME
Details: dog, MDCK-MDR1; efflux ratio Papp (B-A)/Papp (A-B); read-out: HMDR1 ER
Procedure: The purpose of this study was to evaluate and study the P-gp substrate of the compounds in MDR1 […] cells.
Transport assay: The test sample, nadolol, and metoprolol were administered at a concentration of 2.00 µM, and digoxin was administered at a concentration of 10.0 µM. The administration was performed bidirectionally (A-B and B-A directions), with two replicates for each administration concentration. The dosing solution, receiving solution, and transport buffer were pre-incubated in a 37.0 °C water bath for 30 minutes. The cell layer was rinsed twice with transport buffer. The dosing solution and receiving solution were added to the corresponding wells of the cell plate, respectively (75.0 µL to each apical well and 250 µL to each basolateral well, respectively). After the addition of samples, the cell plate was incubated in an incubator at 37.0°C, 5.0% CO2 and saturated humidity for 90 minutes. The initial dosing solution was used as the T0 sample. After 90 minutes of incubation, samples were collected from each well and labeled as A-B receiver, B-A receiver, A-B donor, and B-A donor, respectively. After the sample collection, all samples were mixed with an appropriate volume of transport buffer and stop solution. All samples were vortexed, and then centrifuged at 20.0 °C and 3220 × g for 10 minutes. An appropriate volume of the supernatant was transferred to a sample analysis plate. After sealing the plate, the samples were stored at 2.0 to 8.0 °C if not analyzed immediately. Analysis was performed using LC-MS/MS.
Cell membrane integrity assay: After the transport assay, the integrity of the MDR1-MDCK II cell layer was assayed by the Lucifer Yellow Rejection Assay. The remaining solution in the apical and basolateral wells was removed. 75.0 µL of transport buffer containing 100 µM Lucifer Yellow was added to the apical well, and 250 µL of transport buffer was added to the basolateral well, respectively. The cell plate was incubated in a cell culture incubator at 37 °C, 5% CO2 and saturated humidity for 30 minutes. Then, 20.0 µL of sample was taken from the apical end and mixed with 60.0 µL of transport buffer, and 80.0 µL of sample was taken from the basolateral end. The relative fluorescence unit (RFU) was measured at 425/528 nm (excitation/emission) using a microplate reader.
In this study, the sample analysis of the compounds and control compounds of nadolol, metoprolol, and digoxin was performed using LC-MS/MS. The retention time of the analytes and internal standards, chromatogram acquisition, and chromatogram integration were processed using the software Analyst (Sciex, Framingham, MA, USA). […] Semi-quantitative determination was performed using the ratio of the peak area of analyte to the peak area of internal standard.
The apparent permeability coefficient (Papp, cm/s), efflux ratio (ER), and recovery rate (%Solution Recovery) were calculated using the following formulas. Papp = (VR)/(Area × Time) × ([drug]receiver)/([drug]initial, donor) = (VR)/(Area × Time) × (CR)/(C0) [formula] Efflux Ratio = (Papp (B−A))/(Papp (A−B)) [formula] %Solution Recovery = (CR × VR + CD × VD)/(C0 × VD) × 100 [formula]
VR is the volume of the receiver solution (0.0750 mL for side A, and 0.250 mL for side B); Area is the surface area of the cell monolayer (0.143 cm^2); Time is the incubation time (5400 s); C0 is the initial peak area ratio of the test compound or the control compound at the donor; VD is the volume of the donor (0.0750 mL for side A, and 0.250 mL for side B); CD and CR are the peak area ratios of the test compound or the control compound at the donor and the receiver, respectively. The transmittance of Lucifer Yellow (%Lucifer Yellow) was calculated using the following formula: %Lucifer Yellow = (VBasolateral × RFUBasolateral)/(VApical × RFUApical + VBasolateral × RFUBasolateral) × 100 [formula]
RFUApical and RFUBasolateral are the relative fluorescence units of Lucifer Yellow at the apical and basolateral ends, respectively. […]

Row | SMILES | efflux ratio | efflux ratio at 90 min, 2 µM
1 | CC(C)(C)CC(=O)Nc1nc2c(F)cc(C#N)cn2c1C1=CCCC1 [Compound 3] | 4.15 | 
2 | CC(C)(C)CC(=O)Nc1nc2c(F)cc(C#N)cn2c1-c1ccc(OC(F)(F)F)cc1 [Compound 1] |  | 5.04
3 | CC(C)(C)CC(=O)Nc1nc2c(F)cc(C#N)cn2c1C12CC(C1)C2 [Compound 5] | 3.41 | 
